Reference: publication PMC5218480 (PLoS ONE, 2017)

Tested on: MV-4-11 cells
Test: Gene expression microarray analysis (Affymetrix PrimeView) and GSEA
Format: cell-based, human
Design: RFU PODN (11730768_x_at) / Fold change /veh PODN (11730768_x_at) / RFU LINC00158 (11744669_a_at) / Fold change /veh LINC00158 (11744669_a_at) / RFU DUSP10 (11751237_a_at) / Fold change /veh DUSP10 (11751237_a_at) / RFU ID3 (11757404_x_at) / Fold change /veh ID3 (11757404_x_at) / RFU PLEKHG5 (11737974_s_at) / Fold change /veh PLEKHG5 (11737974_s_at) / RFU LRRC4B (11730491_at) / Fold change /veh LRRC4B (11730491_at) / RFU GIMAP4 (11747438_a_at) / Fold change /veh GIMAP4 (11747438_a_at) / RFU KRT8 (11758183_x_at) / Fold change /veh KRT8 (11758183_x_at) / RFU CNN1 (11734310_a_at) / Fold change /veh CNN1 (11734310_a_at) / RFU VPS37D (11726825_at) / Fold change /veh VPS37D (11726825_at) / RFU C10orf10 (11716522_x_at) / Fold change /veh C10orf10 (11716522_x_at) / RFU KIR2DL2 /// KIR2DL4 /// KIR2DL5A /// KIR2DL5B /// KIR2DS1 /// KIR2DS2 /// KIR2DS3 /// KIR2DS4 /// KIR3DL3 /// KIR3DL3 /// KIR3DS1 (11738374_at) / Fold change /veh KIR2DL2 /// KIR2DL4 /// KIR2DL5A /// KIR2DL5B /// KIR2DS1 /// KIR2DS2 /// KIR2DS3 /// KIR2DS4 /// KIR3DL3 /// KIR3DL3 /// KIR3DS1 (11738374_at) / RFU C1QL1 (11718748_at) / Fold change /veh C1QL1 (11718748_at) / RFU TMPRSS4 (11747572_a_at) / Fold change /veh TMPRSS4 (11747572_a_at) / RFU HAMP (11756126_x_at) / Fold change /veh HAMP (11756126_x_at) / RFU RNFT2 (11725882_a_at) / Fold change /veh RNFT2 (11725882_a_at) / RFU NR4A2 (11747474_a_at) / Fold change /veh NR4A2 (11747474_a_at) / RFU ABCC12 (11746883_a_at) / Fold change /veh ABCC12 (11746883_a_at) / RFU TMEM136 (11760407_x_at) / Fold change /veh TMEM136 (11760407_x_at) / RFU CLDN22 /// WWC2 (11732394_at) / Fold change /veh CLDN22 /// WWC2 (11732394_at) / RFU HLA-DPB1 (11760878_x_at) / Fold change /veh HLA-DPB1 (11760878_x_at) / RFU SPINT1 (11716480_a_at) / Fold change /veh SPINT1 (11716480_a_at) / RFU GAP43 (11754022_s_at) / Fold change /veh GAP43 (11754022_s_at) / RFU A4GNT (11735810_at) / Fold change /veh A4GNT (11735810_at) / RFU PRB3 (11715151_x_at) / Fold change /veh PRB3 (11715151_x_at) / RFU TUBB4B (11761932_at) / Fold change /veh TUBB4B (11761932_at) / RFU CAPN14 (11732068_a_at) / Fold change /veh CAPN14 (11732068_a_at) / RFU TMCC2 (11721928_a_at) / Fold change /veh TMCC2 (11721928_a_at) / RFU IRGQ (11745062_a_at) / Fold change /veh IRGQ (11745062_a_at) / RFU FAM174B (11720279_a_at) / Fold change /veh FAM174B (11720279_a_at) / RFU TMPRSS4 (11748680_a_at) / Fold change /veh TMPRSS4 (11748680_a_at) / RFU FAM212B (11763350_a_at) / Fold change /veh FAM212B (11763350_a_at) / RFU PLEKHG5 (11743358_a_at) / Fold change /veh PLEKHG5 (11743358_a_at) / RFU ZSCAN30 (11745921_a_at) / Fold change /veh ZSCAN30 (11745921_a_at) / RFU CMKLR1 (11741424_a_at) / Fold change /veh CMKLR1 (11741424_a_at) / RFU LOC101060620 /// MAPK8IP1 (11723275_at) / Fold change /veh LOC101060620 /// MAPK8IP1 (11723275_at) / RFU SPTSSB (11747773_x_at) / Fold change /veh SPTSSB (11747773_x_at) / RFU PRSS12 (11739890_at) / Fold change /veh PRSS12 (11739890_at) / RFU BIN1 (11741810_x_at) / Fold change /veh BIN1 (11741810_x_at) / RFU WNT11 (11732464_a_at) / Fold change /veh WNT11 (11732464_a_at) / RFU C10orf10 (11716521_a_at) / Fold change /veh C10orf10 (11716521_a_at) / RFU C5orf56 (11738089_at) / Fold change /veh C5orf56 (11738089_at) / RFU CYB561 (11721691_x_at) / Fold change /veh CYB561 (11721691_x_at) / RFU ANKRD19P (11752326_a_at) / Fold change /veh ANKRD19P (11752326_a_at) / RFU OR2T12 /// OR2T33 /// OR2T8 (11738714_s_at) / Fold change /veh OR2T12 /// OR2T33 /// OR2T8 (11738714_s_at) / RFU VCAN (11748164_a_at) / Fold change /veh VCAN (11748164_a_at) / RFU JSRP1 (11732532_at) / Fold change /veh JSRP1 (11732532_at) / RFU KRTAP10-11 (11738290_x_at) / Fold change /veh KRTAP10-11 (11738290_x_at) / RFU MYO3A (11730013_a_at) / Fold change /veh MYO3A (11730013_a_at) / RFU EBF3 (11725865_a_at) / Fold change /veh EBF3 (11725865_a_at) / RFU CAMK2N1 (11719241_x_at) / Fold change /veh CAMK2N1 (11719241_x_at) / RFU C5orf56 (11738088_a_at) / Fold change /veh C5orf56 (11738088_a_at) / RFU OLFML3 (11715873_a_at) / Fold change /veh OLFML3 (11715873_a_at) / RFU LOC100653217 /// NTM (11731650_a_at) / Fold change /veh LOC100653217 /// NTM (11731650_a_at) / RFU MAPK11 (11762145_a_at) / Fold change /veh MAPK11 (11762145_a_at) / RFU FIZ1 (11724087_x_at) / Fold change /veh FIZ1 (11724087_x_at) / RFU OASL (11726364_x_at) / Fold change /veh OASL (11726364_x_at) / RFU SOX15 (11748057_x_at) / Fold change /veh SOX15 (11748057_x_at) / RFU CD79A (11719716_a_at) / Fold change /veh CD79A (11719716_a_at) / RFU HIST1H1D (11736915_at) / Fold change /veh HIST1H1D (11736915_at) / RFU CASKIN2 (11723855_a_at) / Fold change /veh CASKIN2 (11723855_a_at) / RFU LOC730098 (11760151_x_at) / Fold change /veh LOC730098 (11760151_x_at) / RFU OR4N2 (11742367_at) / Fold change /veh OR4N2 (11742367_at) / RFU PRRT2 (11749266_a_at) / Fold change /veh PRRT2 (11749266_a_at) / RFU SNX32 (11753110_a_at) / Fold change /veh SNX32 (11753110_a_at) / RFU CDHR5 (11726645_a_at) / Fold change /veh CDHR5 (11726645_a_at) / RFU RCAN1 (11760418_a_at) / Fold change /veh RCAN1 (11760418_a_at) / RFU FAM167A (11723789_a_at) / Fold change /veh FAM167A (11723789_a_at) / RFU FAM26E (11764081_at) / Fold change /veh FAM26E (11764081_at) / RFU ISYNA1 (11749810_s_at) / Fold change /veh ISYNA1 (11749810_s_at) / RFU ACY1 (11761880_at) / Fold change /veh ACY1 (11761880_at) / RFU 11764098_at / Fold change /veh 11764098_at / RFU SAMD14 (11745864_x_at) / Fold change /veh SAMD14 (11745864_x_at) / RFU NPB (11741838_a_at) / Fold change /veh NPB (11741838_a_at) / RFU TMPRSS6 (11731388_a_at) / Fold change /veh TMPRSS6 (11731388_a_at) / RFU KRTAP10-2 (11738614_at) / Fold change /veh KRTAP10-2 (11738614_at) / RFU ARHGAP8 /// PRR5-ARHGAP8 (11727945_x_at) / Fold change /veh ARHGAP8 /// PRR5-ARHGAP8 (11727945_x_at) / RFU KRTAP5-7 /// NADSYN1 (11734609_at) / Fold change /veh KRTAP5-7 /// NADSYN1 (11734609_at) / RFU RASL12 (11751679_a_at) / Fold change /veh RASL12 (11751679_a_at) / RFU CDKN2B (11736163_a_at) / Fold change /veh CDKN2B (11736163_a_at) / RFU PRF1 (11729649_at) / Fold change /veh PRF1 (11729649_at) / RFU, ZNF638 /// ZNF638-IT1 / Fold change vs veh, ZNF638 /// ZNF638-IT1 / RFU, PANK3 / Fold change vs veh, PANK3 / RFU, SH3YL1 / Fold change vs veh, SH3YL1 / RFU, ZEB2 / Fold change vs veh, ZEB2 / RFU, NRIP1 / Fold change vs veh, NRIP1 / RFU, PTTG1IP / Fold change vs veh, PTTG1IP / RFU, CAPN2 / Fold change vs veh, CAPN2 / RFU, MED14 / Fold change vs veh, MED14 / RFU, SNORA58 / Fold change vs veh, SNORA58 / RFU, C1orf63 / Fold change vs veh, C1orf63 / RFU, LRRFIP1 / Fold change vs veh, LRRFIP1 / RFU, NDUFAF7 / Fold change vs veh, NDUFAF7 / RFU, SLC12A2 / Fold change vs veh, SLC12A2 / RFU, IBTK / Fold change vs veh, IBTK / RFU, ESF1 / Fold change vs veh, ESF1 / Fold change vs veh, TMEM50B / RFU, TAOK1 / Fold change vs veh, TAOK1 / RFU, ACBD3 / Fold change vs veh, ACBD3 / RFU, TMA16 / Fold change vs veh, TMA16 / RFU, RWDD3 / Fold change vs veh, RWDD3 / RFU, BCAT1 / Fold change vs veh, BCAT1 / RFU, EDEM3 / Fold change vs veh, EDEM3 / RFU, TMEM33 / Fold change vs veh, TMEM33 / RFU, WDR75 / Fold change vs veh, WDR75 / RFU, AHCTF1 / Fold change vs veh, AHCTF1 / RFU, TFRC / Fold change vs veh, TFRC / RFU, ZDHHC17 / Fold change vs veh, ZDHHC17 / RFU, NOM1 / Fold change vs veh, NOM1 / RFU, ARL8B / Fold change vs veh, ARL8B / RFU, ZBTB11 / Fold change vs veh, ZBTB11 / RFU, TAMM41 / Fold change vs veh, TAMM41 / RFU, KIAA1704 /// LOC100996395 / Fold change vs veh, KIAA1704 /// LOC100996395 / RFU, ING1 / Fold change vs veh, ING1 / RFU, TRMT61B / Fold change vs veh, TRMT61B / RFU, FUBP3 / Fold change vs veh, FUBP3 / RFU, TP53 / Fold change vs veh, TP53 / RFU, TNKS2 / Fold change vs veh, TNKS2 / RFU, ZFP14 / Fold change vs veh, ZFP14 / RFU, ACTR2 / Fold change vs veh, ACTR2 / RFU, PPP3R1 / Fold change vs veh, PPP3R1 / RFU, PIK3R1 / Fold change vs veh, PIK3R1 / RFU, HNRNPA1 / Fold change vs veh, HNRNPA1 / RFU, RNF170 / Fold change vs veh, RNF170 / RFU, ZNF28 / Fold change vs veh, ZNF28 / RFU, RNGTT / Fold change vs veh, RNGTT / RFU, OGT / Fold change vs veh, OGT / RFU, BRD1 / Fold change vs veh, BRD1 / RFU, MARS / Fold change vs veh, MARS / RFU, ZNF655 / Fold change vs veh, ZNF655 / RFU, FAHD1 / Fold change vs veh, FAHD1 / RFU, BDP1 / Fold change vs veh, BDP1 / RFU, LRRCC1 / Fold change vs veh, LRRCC1 / RFU, ARID1A / Fold change vs veh, ARID1A / RFU, ZNF146 / Fold change vs veh, ZNF146 / RFU, ZNF330 / Fold change vs veh, ZNF330 / RFU, GPN3 / Fold change vs veh, GPN3 / RFU, C9orf123 / Fold change vs veh, C9orf123 / RFU, N4BP2L2 / Fold change vs veh, N4BP2L2 / RFU, ARFIP1 / Fold change vs veh, ARFIP1 / RFU, FAM179B / Fold change vs veh, FAM179B / RFU, BCL10 / Fold change vs veh, BCL10 / RFU, UHRF1BP1L / Fold change vs veh, UHRF1BP1L / RFU, BET1 / Fold change vs veh, BET1 / RFU, CNOT2 / Fold change vs veh, CNOT2 / RFU, ZNF268 / Fold change vs veh, ZNF268 / Fold change vs veh, ZNF507 / RFU, DGCR2 / Fold change vs veh, DGCR2 / RFU, WDSUB1 / Fold change vs veh, WDSUB1 / Fold change vs veh, HSP90B1 /// MIR3652 / RFU, ADSS / Fold change vs veh, ADSS / RFU, GK / Fold change vs veh, GK / RFU, ZNF148 / Fold change vs veh, ZNF148 / RFU, TAF9 / Fold change vs veh, TAF9 / RFU, SLC1A5 / Fold change vs veh, SLC1A5 / RFU, SLMO2 / Fold change vs veh, SLMO2 / RFU, ABCC4 / Fold change vs veh, ABCC4 / RFU, LOC101060439 /// RAP1B / Fold change vs veh, LOC101060439 /// RAP1B / RFU, RFX7 / Fold change vs veh, RFX7 / RFU, GTPBP10 / Fold change vs veh, GTPBP10 / RFU, CNEP1R1 / Fold change vs veh, CNEP1R1 / RFU, BIVM-ERCC5 /// ERCC5 / Fold change vs veh, BIVM-ERCC5 /// ERCC5 / RFU, ILF3 / Fold change vs veh, ILF3 / RFU 11762660_at / Fold change /veh 11762660_at / RFU VCAN (11757783_s_at) / Fold change /veh VCAN (11757783_s_at) / RFU DDX43 (11728927_at) / Fold change /veh DDX43 (11728927_at) / RFU KRT8 (11758188_x_at) / Fold change /veh KRT8 (11758188_x_at) / RFU NKD1 (11759106_at) / Fold change /veh NKD1 (11759106_at) / RFU SRD5A1 (11742802_a_at) / Fold change /veh SRD5A1 (11742802_a_at) / RFU TPSAB1 /// TPSB2 (11721975_s_at) / Fold change /veh TPSAB1 /// TPSB2 (11721975_s_at) / RFU GSTM3 (11746129_a_at) / Fold change /veh GSTM3 (11746129_a_at) / RFU IL23R (11737362_x_at) / Fold change /veh IL23R (11737362_x_at) / RFU TMEM51 (11727254_a_at) / Fold change /veh TMEM51 (11727254_a_at) / RFU PIWIL2 (11732686_x_at) / Fold change /veh PIWIL2 (11732686_x_at) / RFU ORM1 (11744905_x_at) / Fold change /veh ORM1 (11744905_x_at) / RFU CCDC152 (11743942_at) / Fold change /veh CCDC152 (11743942_at) / RFU ECM1 (11717891_a_at) / Fold change /veh ECM1 (11717891_a_at) / RFU IL23R (11748794_a_at) / Fold change /veh IL23R (11748794_a_at) / RFU TNFAIP8L3 (11732012_x_at) / Fold change /veh TNFAIP8L3 (11732012_x_at) / RFU MBOAT4 (11741988_at) / Fold change /veh MBOAT4 (11741988_at) / RFU 11764193_at / Fold change /veh 11764193_at / RFU TMEM53 (11763286_at) / Fold change /veh TMEM53 (11763286_at) / RFU MAGEB2 (11727129_at) / Fold change /veh MAGEB2 (11727129_at) / RFU TMEM200A (11744735_a_at) / Fold change /veh TMEM200A (11744735_a_at) / RFU CCDC152 (11751479_a_at) / Fold change /veh CCDC152 (11751479_a_at) / RFU FAM211A (11726209_a_at) / Fold change /veh FAM211A (11726209_a_at) / RFU RGS16 (11746705_a_at) / Fold change /veh RGS16 (11746705_a_at) / RFU VCAN (11755009_s_at) / Fold change /veh VCAN (11755009_s_at) / RFU RHOB (11743442_s_at) / Fold change /veh RHOB (11743442_s_at) / RFU RGS16 (11720943_a_at) / Fold change /veh RGS16 (11720943_a_at) / RFU RGS16 (11720944_at) / Fold change /veh RGS16 (11720944_at) / RFU, VPS4B / Fold change vs veh, VPS4B / RFU, CREB1 / Fold change vs veh, CREB1 / RFU, DNAJC13 / Fold change vs veh, DNAJC13 / RFU, GNAQ / Fold change vs veh, GNAQ / RFU, CDK5R1 / Fold change vs veh, CDK5R1 / RFU, ZRANB3 / Fold change vs veh, ZRANB3 / RFU, CUL4A / Fold change vs veh, CUL4A / RFU, CCNY / Fold change vs veh, CCNY / RFU, UFL1 / Fold change vs veh, UFL1 / RFU, COG3 / Fold change vs veh, COG3 / RFU, DIAPH2 / Fold change vs veh, DIAPH2 / RFU, SKA2 / Fold change vs veh, SKA2 / RFU, AFF3 / Fold change vs veh, AFF3 / RFU, LMF1 / Fold change vs veh, LMF1 / RFU, IPO11 / Fold change vs veh, IPO11 / RFU, DFFB / Fold change vs veh, DFFB / RFU, FOXP1 / Fold change vs veh, FOXP1 / RFU, CARD8 / Fold change vs veh, CARD8 / RFU, STRN3 / Fold change vs veh, STRN3 / RFU, ADK / Fold change vs veh, ADK / RFU, RASSF2 / Fold change vs veh, RASSF2 / RFU, WIPF1 / Fold change vs veh, WIPF1 / RFU, LARP1B / Fold change vs veh, LARP1B / RFU, RASA1 / Fold change vs veh, RASA1 / RFU, RB1 / Fold change vs veh, RB1 / RFU, PPFIA1 / Fold change vs veh, PPFIA1 / RFU, MAT2A / Fold change vs veh, MAT2A / RFU, CCT5 / Fold change vs veh, CCT5 / RFU, WDR92 / Fold change vs veh, WDR92 / RFU, CUX1 / Fold change vs veh, CUX1 / RFU, TTC7A / Fold change vs veh, TTC7A / RFU, TMEM135 / Fold change vs veh, TMEM135 / RFU, DEPTOR / Fold change vs veh, DEPTOR / RFU, CPM / Fold change vs veh, CPM / RFU, DNAJB6 / Fold change vs veh, DNAJB6 / RFU, CACNA2D3 / Fold change vs veh, CACNA2D3 / RFU, DTX4 / Fold change vs veh, DTX4 / RFU, TFCP2 / Fold change vs veh, TFCP2 / RFU, GMCL1 /// GMCL1P1 / Fold change vs veh, GMCL1 /// GMCL1P1 / RFU, AEBP2 / Fold change vs veh, AEBP2 / RFU, SNHG1 /// SNORD22 /// SNORD25 /// SNORD26 /// SNORD27 /// SNORD28 /// SNORD29 /// SNORD31 / Fold change vs veh, SNHG1 /// SNORD22 /// SNORD25 /// SNORD26 /// SNORD27 /// SNORD28 /// SNORD29 /// SNORD31 / Fold change (Aza/veh), C12orf56 (ProbeSet 11735607_a_at) / Fold change (ACY-1035/veh), C12orf56 (ProbeSet 11735607_a_at) / Fold change (Aza/veh), FGFR1OP (ProbeSet 11751329_s_at) / Fold change (ACY-1035/veh), FGFR1OP (ProbeSet 11751329_s_at) / Fold change (Aza/veh), VPS36 (ProbeSet 11739960_a_at) / Fold change (ACY-1035/veh), VPS36 (ProbeSet 11739960_a_at) / RFU SYPL1 (11715823_x_at) / Fold change /veh SYPL1 (11715823_x_at) / RFU IGFBP7 (11715501_s_at) / Fold change /veh IGFBP7 (11715501_s_at) / RFU REEP3 (11722064_at) / Fold change /veh REEP3 (11722064_at) / RFU IGLL1 (11728026_x_at) / Fold change /veh IGLL1 (11728026_x_at): dose or concentration left out as unconfirmed
Conditions: ProbeSet 11723141_at; LIST B

`Nc1ncn([C@@H]2O[C@H](CO)[C@@H](O)[C@H]2O)c(=O)n1` [azacitidine] was tested. Which “Fold change vs veh, ZBTB11” value did it give?
Its value is 0.93.
